Test results reported in publication PMC9174720, “Evaluation of antioxidant and cytotoxic properties of phenolic N-acylhydrazones: structure–activity relationship” (Royal Society Open Science, 2022).
Like-named read-outs stand apart in the source and are kept apart here.

Key:
[1] = DPPH radical scavenging assay; assay type: biochemical; settings: for IC50: DPPH 0.05 mM in methanol, incubated 20 and 60 min, absorbance at 517 nm, mean ± s.d. of three measurements, read-out: IC50 for inactivation of DPPH free radical; for stoichiometric factor (SF): SF=[DPPH]/(2×IC50), good antioxidant if SF ≥ 2
Protocol: The antioxidant screening of all PheNAHs was performed using the 2,2-diphenyl-1-picrylhydrazyl (DPPH) method. The solution of DPPH radical in methanol (0.05 mM, 1 ml) was mixed with the tested compound (20 µl of different concentrations in dimethyl sulfoxide (DMSO) and 980 µl of methanol). The reaction mixture was incubated in the dark at room temperature for 20 and 60 min after which the absorbance of the sample was measured spectrophotometrically at 517 nm. All measurements were performed in triplicate. Methanol was used as a control solution, whereas quercetin and nordihydroguaiaretic acid (NDGA) were used as reference compounds. […] IC50 is defined as the minimal concentration of tested compound required for reaching 50% of a maximum scavenging capacity. The results were presented as mean values ± standard deviation (s.d.) of three independent measurements. The stoichiometric factor (SF) was calculated for all compounds using the equation [45, 46]:1 SF=[DPPH]/(2×IC50)

HCT-116 = assay: MTT cytotoxicity assay on HCT-116 cells; assay type: cell-based, human; settings: for IC50: Homo sapiens, HCT-116 cell line, read-out: Growth inhibitory effects IC50; for selectivity index (SI): ratio of IC50 values of MRC-5 and HCT-116, values greater than 1 indicate selectivity toward cancer cell line
Protocol: (§1) In this in vitro study, we investigated the influence of PheNAHs on two model systems: human colorectal carcinoma HCT-116 and human healthy fibroblast cell line MRC-5. Both cell lines of low passages were purchased from the European collection of authenticated cell cultures (ECACC) and were cultivated in Dulbecco's Modified Eagle Medium (DMEM) (Sigma, D5796) cell culture medium supplemented with 10% foetal bovine serum (Sigma, F4135-500 ML) and 1% penicillin/streptomycin (Sigma, P4333-100 ML) in 75 cm^2 culture flasks. The cells were maintained according to the standardized procedure in the incubator with humidified atmosphere supplemented with 5% CO2 at a physiological temperature of 37°C, and after a few passages and a confluence of about 80%, the cells were used in all in vitro experiments (Laboratory for Bioengineering protocol CB-003).
(§2) The ability of synthesized compounds to inhibit the growth of two different cell lines was estimated by a standardized 3-(4,5-dimethylthiazol-2-yl)-2,5-diphenyltetrazolium bromide (MTT) assay (Laboratory for Bioengineering protocol CB-005). The approximative number of 10 000 cells per well (in 96-well microplates) were seeded and kept in the incubator for 24 h to enable cell adhesion. After the incubation period, the cells were treated with investigated compounds in the concentration range from 0,1 to 500 µM dissolved in DMEM. Cytotoxic effect was evaluated 24 and 72 h from treatment by following the number of survived cells, thus the cell viability. MTT assay is based on spectrophotometric measurement of reduction rate of 3-(4,5-dimethylthiazol-2-yl)-2,5-diphenyltetrazolium bromide (MTT, Acros Organics, 158990010) to purple formazan crystals subsequently dissolved in DMSO (Fisher Chemical, D/4121/PB15) on a microplate reader (Rayto 2100C) at 550 nm. The percentage of the survived (viable) cells was estimated by dividing the absorbance of the treatment with the absorbance of the control (non-treated) cells and multiplied by 100 [47]. As positive controls, Leucovorin and Irinotecan were selected as compounds used in colon cancer treatment.
(§3) Biological activity was the result of two individual experiments, performed in triplicate for each dose. Statistical analyses were determined using the one-way analysis of variance (ANOVA) test for multiple comparisons, SPSS (Chicago, IL) statistical software package (SPSS for Windows, v. 17, 2008). The IC50 values were calculated from the dose curves by a computer program (CalcuSyn). IC50 values represent the half-maximal inhibitory concentration of tested compounds to measure the influence in inhibition of cell growth for 50%. […] At the beginning of the process of selecting the anti-cancer drug candidate, it is necessary to make a rough preselection between the tested substances. In vitro analysis on cancer and healthy cell lines is quantified in different ways, selectivity also. The selectivity index (SI) of tested drugs usually refers to the simple ratio of IC50 values determined for cancer and healthy cells. Also, the SI can be used for the expression of many other examples, such as SI between antibacterial and antiviral effect, discrimination of the drugs effect between many cancer cell lines, etc. In our experimentation, the values greater than ‘1’ indicate selectivity of the tested substance toward cancer cell line.

MRC-5 = assay: MTT cytotoxicity assay on MRC-5 cells; assay type: cell-based; settings: Homo sapiens, MRC5, MRC-5 cell line, read-out: Growth inhibitory effects IC50
Protocol: as §1, §2, §3

| Compound | IC50 [1] [µM] | IC50 (HCT-116; 24 h exposure) [µM] | IC50 (HCT-116; 72 h exposure) [µM] | selectivity index (SI) (HCT-116; after 72 h exposure) | IC50 (MRC-5; 24 h exposure) [µM] | IC50 (MRC-5; 72 h exposure) [µM] | stoichiometric factor (SF) [1] | selectivity index (SI) (HCT-116; after 24 h exposure) |
| --- | --- | --- | --- | --- | --- | --- | --- | --- |
| COc1cccc(/C=N/NC(=O)c2ccccc2O)c1O [2d] | > 100 | 80.5 | 26.2 | 3.3 | 37.9 | 87.3 |  |  |
| COc1cc(/C=N/NC(=O)c2ccccc2)ccc1O [1e] | 31.4 ± 0.9 | > 500 | > 500 |  | > 500 | > 500 | 0.4 |  |
| COc1cccc(/C=N/NC(=O)c2ccccc2)c1O [1d] | > 100 | > 500 | 66.6 | 4.6 | > 500 | 306 |  |  |
| O=C(N/N=C/c1ccc(O)cc1O)c1ccccc1O [2g] | > 100 | > 500 | 61.2 |  | > 500 | > 500 |  |  |
| O=C(N/N=C/c1ccc(O)cc1O)c1ccccc1 [1g] | > 100 | > 500 | 316 |  | > 500 | > 500 |  |  |
| O=C(N/N=C/c1ccccc1O)c1ccccc1O [2b] | > 100 | 26.9 | 70.5 | 3.30 | > 500 | 233 |  | >18.59 |
| O=C(N/N=C/c1ccc(O)cc1)c1ccccc1O [2c] | > 100 | > 500 | > 500 |  | > 500 | > 500 |  |  |

The next lines start with results.

| IC50 [1] [µM] | Compound | IC50 (HCT-116; 24 h exposure) [µM] | IC50 (HCT-116; 72 h exposure) [µM] | selectivity index (SI) (HCT-116; after 72 h exposure) | IC50 (MRC-5; 24 h exposure) [µM] | IC50 (MRC-5; 72 h exposure) [µM] | stoichiometric factor (SF) [1] | selectivity index (SI) (HCT-116; after 24 h exposure) |
| --- | --- | --- | --- | --- | --- | --- | --- | --- |
| > 100 | O=C(N/N=C/c1ccc(O)cc1O)c1ccc(O)cc1 [3g] | > 500 | 130 |  | > 500 | 440 |  |  |
| > 100 | O=C(N/N=C/c1ccc(O)cc1)c1ccc(O)cc1 [3c] | > 500 | > 500 |  | > 500 | > 500 |  |  |
| > 100 | COc1cc(C(=O)N/N=C/c2ccccc2O)ccc1O [4b] | 250 | 91.4 | 3.17 | > 500 | 290 |  | >2.00 |
| 28.4 ± 0.2 | COc1cc(/C=N/NC(=O)c2ccc(O)cc2)ccc1O [3e] | > 500 | > 500 |  | > 500 | > 500 | 0.4 |  |
| 2.5 ± 0.1 | O=C(N/N=C/c1ccc(O)c(O)c1)c1ccc(O)cc1 [3h] | > 500 | 107 |  | > 500 | > 500 | 5 |  |
| 22.1 ± 1.1 | COc1cc(/C=N/NC(=O)c2ccc(O)c(OC)c2)ccc1O [4e] | > 500 | > 500 |  | > 500 | > 500 | 0.6 |  |
| 0.7 ± 0.1 | O=C(N/N=C/c1ccc(O)c(O)c1)c1cc(O)c(O)c(O)c1 [5h] | > 500 | 58.8 | 0.86 | > 500 | 50.6 | 17.9 |  |
| 1.2 ± 0.1 | O=C(N/N=C/c1ccccc1O)c1cc(O)c(O)c(O)c1 [5b] | 62.6 | 32.4 | 1.61 | 104 | 52.1 | 10.4 | 1.67 |
